Assay results: US20200032269A1, “GENETICALLY MODIFIED CELL LINES FOR METABOLIC STUDIES” (Hennepin Healthcare Research Institute, priority 2017, published 2020)
Read-outs that look alike come from different tables or passages of the source.

Columns and labels:
[1] = system: HuH-7 CYP3A5 *3/*3 cell line; test: Midazolam and tacrolimus metabolism assay, parental HuH-7 cells
Procedure: (§1) To further characterize the cell lines, metabolism assays were performed to determine the effect of each genetic variant on metabolism. FIG. 11 illustrates a generalized representative assay. In this exemplary assay, a cell line is plated on a collagen I-coated plate (or in a well of a multi-well plate, etc.), layered with an extracellular-matrix-like hydrogel (e.g., […], Corning Life Sciences, Tewksbury, Mass.), induced with a suitable inducer (e.g., rifampin and phenytoin), then treated with the substrate MDZ. The MDZ substrate is converted by the metabolic processes of the cell line to 1-OH MDZ or 4-OH MDZ, which can be measured using, for example high performance liquid chromatography (HPLC). The assay can be altered depending on the substrate, cell line, genetic variant, and any other experimental conditions.
(§2) In this metabolism assay, all three exemplary cell lines and HuH-7 parental cell line were grown to confluency and then layered with […] (Corning Life Sciences, Tewksbury, Mass.). The cells were then induced with rifampicin and phenytoin for three days and treated with substrate Tac overnight. Cell culture media were collected after treatment and assayed for Tac disappearance using liquid chromatography-mass spectrometry.
(§3) HuH-7 and engineered cells were grown to confluence in 12 well BIOCOAT collagen I multi-well plates (Corning, Inc., Corning, N.Y.) for 3-4 weeks in DMEM. Cells were then overlaid with […] matrix (Corning, Inc., Corning, N.Y.) and then induced for four days by adding 100 μM phenytoin (USP) and 10 μM rifampicin to the cell culture, with media changed daily with inducers. On the fourth day, 500 μl of media was added to the cells with 100 μM phenytoin (USP) and 10 μM rifampicin with either equal volumes of methanol, as a negative control, or Midazolam (MDZ; Cerrilliant Corp., Round Rock, Tex.) diluted in methanol so that MDZ final concentration was 5 μM in cell culture media. Cells were incubated overnight, and media was collected and assayed for MDZ, 1-OH MDZ and 4-OH MDZ by high performance liquid chromatography.
(§4) To determine the metabolic function of the engineered cell lines, the cells were treated with MDZ at 1628 ng/mL (5 μM) in cell culture overnight. The following day, the cell culture media was harvested and analyzed by liquid chromatography/mass spectrometry (LC/MS) at the University of Minnesota Department of Experimental and Clinical Pharmacology to quantify the concentrations of MDZ and the metabolites 1-hydroxy-midazolam (1-OH MDZ) and 4-hydroxy-midazolam (4-OH MDZ).
(§5) Likewise, Tac was added to cells and analyzed by LC/MS at the University of Minnesota Department of Experimental and Clinical Pharmacology. […]

CYP3A4 = CYP3A4 (Homo sapiens, UniProt P08684); details: FIG. 16 diagram; cited from earlier work
Chain of CYP3A4 (P08684 whole entry): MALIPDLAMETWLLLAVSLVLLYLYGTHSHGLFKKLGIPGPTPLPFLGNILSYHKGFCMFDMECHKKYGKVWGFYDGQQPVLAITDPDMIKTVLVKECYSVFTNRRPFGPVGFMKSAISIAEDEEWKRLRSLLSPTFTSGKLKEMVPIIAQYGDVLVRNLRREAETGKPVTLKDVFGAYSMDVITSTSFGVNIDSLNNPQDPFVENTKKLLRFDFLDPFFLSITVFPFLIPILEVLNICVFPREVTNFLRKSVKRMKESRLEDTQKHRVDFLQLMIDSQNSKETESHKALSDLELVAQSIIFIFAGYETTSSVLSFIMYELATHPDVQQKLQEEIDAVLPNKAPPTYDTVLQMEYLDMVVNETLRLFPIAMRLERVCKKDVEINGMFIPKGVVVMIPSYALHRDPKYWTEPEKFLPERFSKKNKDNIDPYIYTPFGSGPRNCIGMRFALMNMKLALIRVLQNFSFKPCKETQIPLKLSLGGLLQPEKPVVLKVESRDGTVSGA

CYP3A5 = CYP3A5 (Homo sapiens, UniProt P20815); details: FIG. 16 diagram; cited from earlier work
Chain of CYP3A5 (P20815 whole entry): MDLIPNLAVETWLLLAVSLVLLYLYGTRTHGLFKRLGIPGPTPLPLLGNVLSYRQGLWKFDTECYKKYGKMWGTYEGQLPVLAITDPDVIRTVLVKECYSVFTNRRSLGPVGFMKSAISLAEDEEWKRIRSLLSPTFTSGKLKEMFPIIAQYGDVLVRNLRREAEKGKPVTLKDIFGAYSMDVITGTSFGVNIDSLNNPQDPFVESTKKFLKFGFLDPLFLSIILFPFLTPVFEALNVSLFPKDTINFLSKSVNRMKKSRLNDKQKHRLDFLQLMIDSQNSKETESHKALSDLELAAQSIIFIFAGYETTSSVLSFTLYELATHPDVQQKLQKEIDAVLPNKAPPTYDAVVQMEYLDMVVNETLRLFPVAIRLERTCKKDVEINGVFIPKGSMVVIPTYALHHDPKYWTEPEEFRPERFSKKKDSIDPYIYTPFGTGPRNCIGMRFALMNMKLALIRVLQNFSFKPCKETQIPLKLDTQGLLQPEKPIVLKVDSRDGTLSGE

[2] = system: CYP3A5 *1/*3 sd cell line; test: Midazolam and tacrolimus metabolism assay, CYP3A5 *1/*3 sd cells
Procedure: as §1, §2, §3, §4, §5

[3] = system: CYP3A5 *1/*1 dd cell line; test: Midazolam and tacrolimus metabolism assay, CYP3A5 *1/*1 dd cells
Procedure: as §1, §2
HuH-7 and engineered cells were grown to confluence in 12 well BIOCOAT collagen I multi-well plates (Corning, Inc., Corning, N.Y.) for 3-4 weeks in DMEM. […]
as §4, §5

[4] = system: CYP3A5 *1/*3 pm cell line; test: Midazolam and tacrolimus metabolism assay, CYP3A5 *1/*3 pm cells
Procedure: as §1, §2, §3, §4, §5

[5] = kidney transplant patients, cited from earlier work

SMILES: Cc1ccc(-c2c(-c3nn(C)c4ncnc(N5CC[C@H](N6CCCCC6)C5)c34)cnn2C)cc1 [CYP3CIDE]
- inhibition of 1-OH MDZ production ([1]; 50 μM CYP3CIDE, HuH-7 cells, MDZ substrate, FIG. 19): nearly completely inhibited
- inhibition of 4-OH MDZ production ([1]; 50 μM CYP3CIDE, HuH-7 cells, MDZ substrate, FIG. 20): inhibited
- inhibitory function on CYP3A4 (CYP3A4): strong inhibitor
- inhibitory function on CYP3A5 (CYP3A5): mild inhibitory effect

SMILES: Cc1ncc2n1-c1ccc(Cl)cc1C(c1ccccc1F)=NC2 [Midazolam, midazolam]
- Midazolam (ng/mL) No CYP3CIDE ([1]; HuH-7 CYP3A5 *3/*3, start 5 μM (approximately 1629 ng/ml) MDZ, overnight, no CYP3CIDE, mean ± SD of six): 1458 ± 62 ng/mL
- Midazolam (ng/mL) With CYP3CIDE ([1]; HuH-7 CYP3A5 *3/*3, start 5 μM (approximately 1629 ng/ml) MDZ, overnight, with 50 μM CYP3CIDE, mean ± SD of six): 1534 ± 32 ng/mL
- MDZ disappearance ([2]; CYP3A5 *1/*3 sd, FIG. 13, five biological replicates): more efficiently than the parental HuH-7 cell line
- Midazolam (ng/mL) No CYP3CIDE ([2]; CYP3A5 *1/*3 sd, start 5 μM MDZ, overnight, no CYP3CIDE, mean ± SD of six): 971 ± 110 ng/mL
- Midazolam (ng/mL) With CYP3CIDE ([2]; CYP3A5 *1/*3 sd, start 5 μM MDZ, overnight, with 50 μM CYP3CIDE, mean ± SD of six): 1241 ± 64 ng/mL
- MDZ disappearance ([3]; FIG. 13, five biological replicates): the most MDZ disappearance
- Midazolam (ng/mL) No CYP3CIDE ([3]; start 5 μM MDZ, overnight, no CYP3CIDE, mean ± SD of six): 724 ± 200 ng/mL
- Midazolam (ng/mL) With CYP3CIDE ([3]; start 5 μM MDZ, overnight, with 50 μM CYP3CIDE, mean ± SD of six): 1189 ± 90 ng/mL
- MDZ disappearance ([4]; CYP3A5 *1/*3 pm, FIG. 13, five biological replicates): more efficiently than the parental HuH-7 cell line
- Midazolam (ng/mL) No CYP3CIDE ([4]; CYP3A5 *1/*3 pm, start 5 μM MDZ, overnight, no CYP3CIDE, mean ± SD of six): 1130 ± 45 ng/mL
- Midazolam (ng/mL) With CYP3CIDE ([4]; CYP3A5 *1/*3 pm, start 5 μM MDZ, overnight, with 50 μM CYP3CIDE, mean ± SD of six): 1224 ± 18 ng/mL

SMILES: C=CC[C@@H]1/C=C(\C)C[C@H](C)C[C@H](OC)[C@H]2O[C@@](O)(C(=O)C(=O)N3CCCC[C@H]3C(=O)O[C@H](/C(C)=C/[C@@H]3CC[C@@H](O)[C@H](OC)C3)[C@H](C)[C@@H](O)CC1=O)[C@H](C)C[C@@H]2OC [Tac, tacrolimus]
- Tac disappearance ([2]; human, 13 ng/mL): more efficiently than the parental HuH-7 cell line
- Tac disappearance ([4]; human, 13 ng/mL): more efficiently than the parental HuH-7 cell line
- reduction in log-transformed dose-normalized troughs ([5]; one CYP3A5 *1 allele present): 36%
- reduction in log-transformed dose-normalized troughs ([5]; two CYP3A5 *1 alleles present): 59%
